Measured values as given in article PMC9134235 (ACS Omega, 2022).

Tests used:
DOR = DOR (Homo sapiens, UniProt P41143); experiment: DOR-Tango β-arrestin2 recruitment, dose–response; assay type: cell-based; conditions: for reversal of the agonist activity of EIPA: 10 μM EIPA, increasing antagonist; for agonist / allosteric activity at DOR: 10 μM modulator, in the presence or absence of DADLE; for effect of extracellular Na+ on agonistic activity: reducing extracellular Na+ to 30 mM
different GPCRs = conditions: cited from earlier work
DOR D95A2.50 = DOR D95A2.50 (Homo sapiens, UniProt P41143, D95A); experiment: Mutant DOR-Tango β-arrestin2 recruitment; assay type: cell-based; conditions: 10 μM modulator
[1] = tested on: gonadotropin-releasing hormone receptor (GnRHR); conditions: 10 μM; cited from earlier work
DOR chimera KOR-TM1 = DOR chimera KOR-TM1 (Homo sapiens, UniProt P41143+P41145, A58V/A61V/C60F/G73V/L55V/L65V/V68S/V75I); experiment: Chimera DOR-Tango β-arrestin2 recruitment; assay type: cell-based; conditions: 10 μM modulator
DOR WT = DOR WT (Homo sapiens, UniProt P41143); experiment: 3H-DADLE competition binding; conditions: binding experiment in allosteric mode
rat mu-opioid = conditions: ref Tracey et al.[45]; cited from earlier work
cells = experiment: Toxicity to cells; assay type: cell-based, human; conditions: at 10 μM
mouse delta-opioid = conditions: ref Tracey et al.[45]; cited from earlier work
DOR S135A3.39 = DOR S135A3.39 (Homo sapiens, UniProt P41143, S135A); experiment: Mutant DOR-Tango β-arrestin2 recruitment; assay type: cell-based; conditions: 10 μM
DOR N131V3.35 = DOR N131V3.35 (Homo sapiens, UniProt P41143, N131V); experiment: Mutant DOR-Tango β-arrestin2 recruitment; assay type: cell-based; conditions: 10 μM
kappa-opioid receptor = conditions: ref Tracey et al.[45]; cited from earlier work
M5 muscarinic receptor = biological target: T1, M5 muscarinic receptor (Homo sapiens, UniProt P08912); experiment: M5-Tango β-arrestin2 recruitment, carbachol dose–response; assay type: cell-based; conditions: external Na+ increased to 200 mM
T1 sequence (P08912 1-532): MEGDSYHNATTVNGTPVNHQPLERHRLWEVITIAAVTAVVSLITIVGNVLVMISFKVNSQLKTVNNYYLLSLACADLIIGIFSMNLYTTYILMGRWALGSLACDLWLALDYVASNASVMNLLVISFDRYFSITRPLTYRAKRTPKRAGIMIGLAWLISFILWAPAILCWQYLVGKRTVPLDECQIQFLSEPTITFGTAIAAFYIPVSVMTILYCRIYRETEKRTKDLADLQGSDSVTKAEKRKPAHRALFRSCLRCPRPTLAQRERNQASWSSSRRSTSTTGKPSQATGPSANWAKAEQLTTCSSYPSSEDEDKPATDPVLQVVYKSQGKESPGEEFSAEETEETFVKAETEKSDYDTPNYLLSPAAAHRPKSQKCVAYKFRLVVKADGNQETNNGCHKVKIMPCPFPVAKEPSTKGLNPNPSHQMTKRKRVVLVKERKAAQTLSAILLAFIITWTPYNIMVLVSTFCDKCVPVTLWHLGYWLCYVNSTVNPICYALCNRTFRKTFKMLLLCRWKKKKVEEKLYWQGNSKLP

M4 muscarinic receptor = biological target: T2, M4 muscarinic receptor (Homo sapiens, UniProt P08173); experiment: M4-Tango β-arrestin2 recruitment, carbachol dose–response; assay type: cell-based; conditions: external Na+ increased to 200 mM
T2 sequence (P08173 1-479): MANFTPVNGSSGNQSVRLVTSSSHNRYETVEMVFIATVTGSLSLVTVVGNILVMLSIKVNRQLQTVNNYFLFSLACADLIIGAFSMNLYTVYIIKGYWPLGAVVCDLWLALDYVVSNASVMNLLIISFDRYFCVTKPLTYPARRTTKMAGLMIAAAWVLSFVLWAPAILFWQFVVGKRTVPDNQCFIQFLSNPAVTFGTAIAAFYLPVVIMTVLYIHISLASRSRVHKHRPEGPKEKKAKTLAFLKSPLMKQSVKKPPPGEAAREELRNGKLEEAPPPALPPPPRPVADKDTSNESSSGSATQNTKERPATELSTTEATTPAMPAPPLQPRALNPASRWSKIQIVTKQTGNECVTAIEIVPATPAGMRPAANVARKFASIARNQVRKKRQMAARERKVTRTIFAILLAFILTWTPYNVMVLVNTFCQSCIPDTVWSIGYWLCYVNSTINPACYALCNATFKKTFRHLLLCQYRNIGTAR

M2 muscarinic receptor = biological target: T3, M2 muscarinic receptor (Homo sapiens, UniProt P08172); experiment: M2-Tango β-arrestin2 recruitment, carbachol dose–response; assay type: cell-based; conditions: external Na+ increased to 200 mM
T3 sequence (P08172 1-466): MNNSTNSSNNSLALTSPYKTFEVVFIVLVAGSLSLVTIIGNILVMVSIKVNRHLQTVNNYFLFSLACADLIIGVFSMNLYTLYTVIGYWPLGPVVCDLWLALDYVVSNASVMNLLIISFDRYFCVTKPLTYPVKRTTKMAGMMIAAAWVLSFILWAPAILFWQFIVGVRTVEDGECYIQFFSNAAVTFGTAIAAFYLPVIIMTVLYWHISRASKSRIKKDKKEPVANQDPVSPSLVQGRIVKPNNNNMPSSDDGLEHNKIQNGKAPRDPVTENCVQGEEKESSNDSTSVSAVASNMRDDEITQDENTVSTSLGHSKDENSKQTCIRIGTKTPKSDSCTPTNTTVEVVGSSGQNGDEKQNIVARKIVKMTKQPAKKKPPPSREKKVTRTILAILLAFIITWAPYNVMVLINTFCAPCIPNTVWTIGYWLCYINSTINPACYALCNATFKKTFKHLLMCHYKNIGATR

Sequence of DOR D95A2.50 (P41143 whole entry D95A): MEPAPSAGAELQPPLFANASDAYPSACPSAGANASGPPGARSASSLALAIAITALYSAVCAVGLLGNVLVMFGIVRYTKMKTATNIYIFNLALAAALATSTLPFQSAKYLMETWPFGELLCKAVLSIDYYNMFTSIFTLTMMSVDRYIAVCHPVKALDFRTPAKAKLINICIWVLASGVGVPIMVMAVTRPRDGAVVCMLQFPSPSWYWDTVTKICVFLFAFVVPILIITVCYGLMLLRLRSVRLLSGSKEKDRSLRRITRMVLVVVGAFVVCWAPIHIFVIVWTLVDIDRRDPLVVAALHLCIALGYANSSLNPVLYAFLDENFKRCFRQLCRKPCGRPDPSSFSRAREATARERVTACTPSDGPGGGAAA
Sequence of DOR (P41143 whole entry): as the sequence (P41143 whole entry D95A) above, with A95D counted along it
Sequence of DOR S135A3.39 (P41143 whole entry S135A, one chain of several): as the sequence (P41143 whole entry D95A) above, with A95D, S135A counted along it
Sequence of DOR WT (P41143 whole entry): as the sequence (P41143 whole entry D95A) above, with A95D counted along it
Sequence of DOR N131V3.35 (P41143 whole entry N131V, one chain of several): as the sequence (P41143 whole entry D95A) above, with A95D, N131V counted along it

## NC(N)=Nc1ccc2[nH]c3c(c2c1)C[C@@]1(O)[C@H]2Cc4ccc(O)c5c4[C@@]1(CCN2CC1CC1)[C@H]3O5 [5′-GNTI]
DOR
  reversal of the agonist activity of EIPA: reversed

## NC(N)=Nc1ccc2c3c([nH]c2c1)[C@@H]1Oc2c(O)ccc4c2[C@@]12CCN(CC1CC1)[C@H](C4)[C@]2(O)C3 [6′-GNTI]
DOR
  reversal of the agonist activity of EIPA: reversed

## N=C(N)NC(=O)c1nc(Cl)c(N)nc1N [Amiloride, amiloride]
DOR
  agonist / allosteric activity at DOR: no activity
Different GPCRs; allosteric modulation on different GPCRs
  affinity: > 10 µM
Different GPCRs; most biophysical studies using amiloride
  concentration with activity in biophysical studies: > 100 µM

## CN(C)c1nc(N)c(C(=O)NC(=N)N)nc1Cl [DMA, 5-(N,N-dimethyl)amiloride]
DOR
  agonist / allosteric activity at DOR: lack of DMA activity

## CCN(c1nc(N)c(C(=O)N=C(N)N)nc1Cl)C(C)C [EIPA, 5-(N-ethyl-N-isopropyl)-amiloride]
DOR
  agonist / allosteric activity at DOR: significant agonist and positive allosteric modulation (ago-PAM)

## NC(N)=NC(=O)c1nc(Cl)c(N2CCCCCC2)nc1N [HMA, 5-(N,N-hexamethylene)amiloride]
DOR D95A2.50
  modulator properties at mutant: almost complete loss of original properties
DOR
  effect of extracellular Na+ on agonistic activity: slightly increases
[1]
  functional effect: modest effect
DOR chimera KOR-TM1
  allosteric modulation (PAM) at chimera: loss of allosteric modulation (PAM)

## CC(C)CN(C)c1nc(N)c(C(=O)N=C(N)N)nc1Cl [MIA, 5-(N-methyl-N-isobutyl)amiloride]
DOR WT
  effect on the Ki of naltrindole toward 3H-DADLE: no effect
DOR D95A2.50
  modulator properties at mutant: almost complete loss of original properties
DOR
  agonist / allosteric activity at DOR: best ago-PAM
  effect of extracellular Na+ on agonistic activity: slightly increases
DOR chimera KOR-TM1
  allosteric modulation (PAM) at chimera: loss of allosteric modulation (PAM)

## Oc1ccc2c3c1O[C@H]1c4[nH]c5ccccc5c4C[C@@]4(O)[C@@H](C2)N(CC2CC2)CC[C@]314 [Naltrindole, naltrindole]
DOR
  reversal of the agonist activity of EIPA: reversed

## NC(=Nc1ccccc1)NC(=O)c1nc(Cl)c(N)nc1N [Phenamil, phenamil]
DOR
  agonist / allosteric activity at DOR: inactive

## N=C(N)NC(=O)c1cnn(-c2cccc3ncccc23)c1C1CC1 [Zoniporide, zoniporide]
DOR D95A2.50
  modulator properties at mutant: almost complete loss of original properties
DOR
  agonist / allosteric activity at DOR: best PAM without intrinsic agonist activity
Rat mu-opioid
  affinity: 60 nM
cells
  toxicity: no toxicity
Mouse delta-opioid
  affinity: 238 nM
DOR S135A3.39
  ago-PAM properties at mutant: increase in the ago-PAM properties
DOR N131V3.35
  ago-PAM properties at mutant: increase in the ago-PAM properties
DOR chimera KOR-TM1
  allosteric modulation (PAM) at chimera: loss of allosteric modulation (PAM)
kappa-opioid receptor
  interaction: no detectable interaction

## C[N+](C)(C)CCOC(N)=O [carbachol]
M5 muscarinic receptor
  increase of efficacy: weakly increasing efficacy
M4 muscarinic receptor
  increase of efficacy: more than 3 fold
M2 muscarinic receptor
  increase of efficacy: more than 3 fold
